Patent US10913787B2, “Method of identifying musk compounds” (Firmenich SA, priority 2015, dated 2021)

Key:
human ortholog OR11A1 = molecular target: T1, human ortholog OR11A1 (Homo sapiens, UniProt Q9GZK7); experiment: cell-based cAMP HTRF dose-response assay, tagged human OR11A1 in HEK293T cells; details: Lucy-Flag-Rho-tagged receptor, in duplicate, musk diversity set, FIG. 3
T1 construct: expressed in transfected cells
T1 sequence (Q9GZK7 1-315): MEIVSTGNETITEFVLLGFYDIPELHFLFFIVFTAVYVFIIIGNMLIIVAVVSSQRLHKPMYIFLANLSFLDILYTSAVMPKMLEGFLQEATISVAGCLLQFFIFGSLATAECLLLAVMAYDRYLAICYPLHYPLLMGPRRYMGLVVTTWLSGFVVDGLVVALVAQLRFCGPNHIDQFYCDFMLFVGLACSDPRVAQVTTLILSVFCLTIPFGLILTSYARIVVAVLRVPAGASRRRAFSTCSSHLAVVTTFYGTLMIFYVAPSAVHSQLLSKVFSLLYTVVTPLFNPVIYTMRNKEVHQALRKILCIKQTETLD
Source text: In a further embodiment, to complete the deorphanization process, the candidate OR genes are further expressed in vitro for confirmation of activity against the compounds used to isolate the olfactory sensory neurons and other structurally-related compounds of interest. The mouse receptors identified from isolated olfactory neurons that respond to both Musk compounds are modified at their N-terminus with short polypeptide sequences (e.g., Flag (SEQ ID NO: 6), Rho (SEQ ID NO: 8; 20 first amino acids of the bovine rhodopsin receptor), or Lucy (SEQ ID NO: 10) tags), transiently expressed in HEK 293T cells, and stimulated separately with Musk compounds to confirm their identity as bona fide Musk compound receptors. Co-expression of the human G alpha subunit Gαolf in this cell-based assay activates the Gs transduction pathway that leads to an internal cAMP increase upon binding to the appropriate ligand. Alternatively, co-expression of the human G alpha subunit Gals in the cell based assay activates the Gq transduction pathway that leads to an internal Ca^2+ increase upon binding to the appropriate ligand. […]
Functional dose-response experiments were performed to evaluate the level of functional activity of the modified cell line. […] Odorant-induced activity was detected by measuring the cAMP increase in the cytosol using an HTRF based kit (CisBio, cAMP dynamic 2 kit, 62AM4PEJ). […]

mouse Olfr96 = experiment: cell-based cAMP HTRF dose-response assay, tagged mouse Olfr96 in HEK293T cells
Source text: In a further embodiment, to complete the deorphanization process, the candidate OR genes are further expressed in vitro for confirmation of activity against the compounds used to isolate the olfactory sensory neurons and other structurally-related compounds of interest. The mouse receptors identified from isolated olfactory neurons that respond to both Musk compounds are modified at their N-terminus with short polypeptide sequences (e.g., Flag (SEQ ID NO: 6), Rho (SEQ ID NO: 8; 20 first amino acids of the bovine rhodopsin receptor), or Lucy (SEQ ID NO: 10) tags), transiently expressed in HEK 293T cells, and stimulated separately with Musk compounds to confirm their identity as bona fide Musk compound receptors. Co-expression of the human G alpha subunit Gαolf in this cell-based assay activates the Gs transduction pathway that leads to an internal cAMP increase upon binding to the appropriate ligand. Alternatively, co-expression of the human G alpha subunit Gals in the cell based assay activates the Gq transduction pathway that leads to an internal Ca^2+ increase upon binding to the appropriate ligand. The above process and the results obtained so far serve to validate the process for rapid and reliable identification of mammalian odorant receptors for Musk compounds.
Functional dose-response experiments were performed to evaluate the level of functional activity of the modified cell line. Using a cell-based assay, mouse Olfr96 was tested in an HEK293T cell line wherein the endogenous RTP1 gene has been activated and the odorant receptor chaperone was expressed. Flag-Rho-tagged receptor genes were co-transfected with the olfactory canonical G-protein Goff gene and were exposed to increasing concentrations of the Musk odorants Tonalide, Vulcanolide, and Muscone. Odorant-induced activity was detected by measuring the cAMP increase in the cytosol using an HTRF based kit (CisBio, cAMP dynamic 2 kit, 62AM4PEJ). […] In an additional repeat experiment using the same conditions, mouse Olfr96 and corresponding human ortholog OR11A1 were tested side by side in duplicate with a musk diversity set for specificity assessment.

[1] = Flag-Rho-tagged receptor, HEK293T with activated RTP1, increasing concentrations of odorant, FIG. 2
[2] = repeat experiment, Lucy-Flag-Rho-tagged receptor, HEK293T, in duplicate, musk diversity set, FIG. 3

In the case of `Cc1cc2c(cc1C=O)C(C)(C)[C@@H](C)[C@H](C)C2(C)C` [Vulcanolide], the “dose-dependent increase of OR11A1 receptor activity (cAMP increase in the cytosol)” value (human ortholog OR11A1) is reported as “dose-dependent increase”, the “dose-dependent increase of Olfr96 receptor activity (cAMP increase in the cytosol)” value (mouse Olfr96; [1]) is reported as “dose-dependent increase” and the “dose-dependent increase of Olfr96 receptor activity (cAMP increase in the cytosol)” value (mouse Olfr96; [2]) is reported as “dose-dependent increase”.

With `Cc1c([N+](=O)[O-])c(C)c([N+](=O)[O-])c(C(C)(C)C)c1[N+](=O)[O-]` [Musk X] the “dose-dependent increase of Olfr96 receptor activity (cAMP increase in the cytosol)” value (mouse Olfr96; [2]) was “dose-dependent increase”.

`CC(=O)c1cc2c(cc1C)C(C)(C)C(C)CC2(C)C` (stereo not shown) [Tonalide] was tested, and the “dose-dependent increase of Olfr96 receptor activity (cAMP increase in the cytosol)” value (mouse Olfr96; [1]) was “dose-dependent increase” and the “dose-dependent increase of Olfr96 receptor activity (cAMP increase in the cytosol)” value (mouse Olfr96; [2]) was “dose-dependent increase”.

In the case of `CC1C(C)(C)C2=C(C(=O)CCC2)C1(C)C` (stereo not shown) [Cashmeran], the “dose-dependent increase of Olfr96 receptor activity (cAMP increase in the cytosol)” value (mouse Olfr96; [2]) is reported as “dose-dependent increase”.
